Measured values as given in ChEMBL document CHEMBL4680364, “Substituted Chromen-4-one Derivatives for Treating Hepatitis B Virus Infection” (ACS Med Chem Lett, 2021).

Test system: Hepatitis B virus
Assay: Antiviral activity against HBV in human HepDE19 cells producing HBV cccDNA assessed as reduction in cccDNA production by measuring HBeAg level incubated for 24 hrs by ELISA
Assay type: functional, organism-based
Conditions: HepDE19, 24 h

SMILES | IC50 [µM]
O=C(O)COc1cc(-c2cc(=O)c3cccc(Cl)c3o2)ccc1C(F)(F)F | 0.32
O=C(O)CCOc1cc(-c2cc(=O)c3cccc(Cl)c3o2)c(F)cc1Br | 0.133
CCOc1cc(Br)c(OCCC(=O)O)cc1-c1cc(=O)c2cccc(Cl)c2o1 | 0.11

The remaining compounds from weak to strong by IC50, led by results:

IC50 [µM] | SMILES
0.49 | Cc1ccc(-c2cc(=O)c3cccc(Cl)c3o2)cc1O[C@H]1C[C@@H](C(=O)O)C1
0.19 | COc1c(-c2cc(=O)c3cccc(Cl)c3o2)ccc(Br)c1OC1CC(C(=O)O)C1 (stereo unspecified)
0.19 | COc1cc(OC)c(-c2cc(=O)c3cccc(Cl)c3o2)cc1OCCOC1CC(C(=O)O)C1 (stereo unspecified)
